Assay results from BindingDB's records for doi:10.1016/j.chembiol.2009.09.012 (University of California Irvine, 2009).

The molecules below were run against T1, Monoglyceride lipase (Rattus norvegicus, UniProt Q8R431) (assay: Enzyme Assay). Settings: 37 °C.
T1 sequence (Q8R431 whole entry): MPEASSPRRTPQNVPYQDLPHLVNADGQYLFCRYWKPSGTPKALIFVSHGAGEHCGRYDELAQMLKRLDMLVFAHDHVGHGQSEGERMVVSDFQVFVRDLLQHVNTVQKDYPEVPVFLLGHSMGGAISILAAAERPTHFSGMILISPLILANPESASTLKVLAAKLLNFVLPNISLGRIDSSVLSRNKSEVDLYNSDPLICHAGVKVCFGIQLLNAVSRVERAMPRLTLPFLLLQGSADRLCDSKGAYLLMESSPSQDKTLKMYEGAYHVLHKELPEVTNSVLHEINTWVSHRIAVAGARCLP
Experimental: Purified recombinant rat MGL was prepared and enzyme activity was assayed.
C=c1c(O)c(O)cc2c1=CC=C1[C@@]2(C)CC[C@@]2(C)[C@@H]3C[C@](C)(C(=O)O)CC[C@]3(C)CC[C@]12C gave an IC50 of 1.6 µM.
Work on Cc1c(O)c(O)cc2c1CC=C1[C@@]2(C)CC[C@@]2(C)C3C[C@](C)(C(=O)O)CC[C@]3(C)CC[C@]12C (stereo not given in full) [Dihydrocelastrol] yielded an IC50 of 15 µM.
Work on CC(=O)Oc1cc2c(c(C)c1OC(C)=O)CC=C1[C@@]2(C)CC[C@@]2(C)[C@@H]3C[C@](C)(C(=O)O)CC[C@]3(C)CC[C@]12C [Dihydrocelastryl diacetate] yielded an IC50 of 15 µM.
Molecule C=c1c(O)c(O)cc2c1=CC=C1[C@@]2(C)CC[C@@]2(C)C3C[C@](C)(C(=O)OC)CC[C@]3(C)CC[C@]12C (stereo not given in full) [Pristimerin] has an IC50 of 0.093 µM.
COC(=O)[C@]1(C)CC[C@]2(C)CC[C@]3(C)C4=CCc5c(cc(O)c(O)c5C)[C@]4(C)CC[C@@]3(C)C2C1 (stereo not given in full) [Pristimerol] was tested, and the IC50 was 4 µM.
